Measurements taken from patent publication US12331046B2, “CTPS1 inhibitors and uses thereof” (Nimbus Clotho, Inc., priority 2020, dated 2025).
pIC50: −log10 of the molar value.

Biological target: human CTPS1 (Homo sapiens (Human), UniProt P17812)
Assay: hCTPS1 biochemical assay (ADP-Glo)
Settings: hCTPS1 25 nM, ATP 120 uM, UTP 160 uM, GTP 60 uM, L-Glutamine 100 uM, 25 degrees C

Chain of human CTPS1 (P17812 whole entry): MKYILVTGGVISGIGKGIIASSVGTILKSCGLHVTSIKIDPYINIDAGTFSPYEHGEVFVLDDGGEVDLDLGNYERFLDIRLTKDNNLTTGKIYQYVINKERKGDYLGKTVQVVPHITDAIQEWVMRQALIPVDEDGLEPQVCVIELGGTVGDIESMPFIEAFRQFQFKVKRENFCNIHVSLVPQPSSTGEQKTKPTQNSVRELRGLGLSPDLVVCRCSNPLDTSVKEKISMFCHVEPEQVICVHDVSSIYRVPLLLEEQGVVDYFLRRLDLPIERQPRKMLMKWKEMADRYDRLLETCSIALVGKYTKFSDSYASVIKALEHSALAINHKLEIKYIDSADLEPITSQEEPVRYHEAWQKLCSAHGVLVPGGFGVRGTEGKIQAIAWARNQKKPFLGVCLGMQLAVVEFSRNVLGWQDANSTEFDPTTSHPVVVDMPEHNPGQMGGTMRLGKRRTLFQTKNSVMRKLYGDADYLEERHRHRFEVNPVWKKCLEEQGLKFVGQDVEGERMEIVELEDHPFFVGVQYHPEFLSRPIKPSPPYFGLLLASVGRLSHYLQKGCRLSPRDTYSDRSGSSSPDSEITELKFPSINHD

Row | Structure (SMILES) | pIC50
1 | CCOc1cncc(-c2cnc(C(=O)N[C@@H](CCN3CCCCC3)c3cc(NS(=O)(=O)C4CC4)ccn3)s2)n1 [I-161, (S)—N-(1-(4-(cyclopropanesulfonamido)pyridin-2-yl)-3-(piperidin-1-yl)propyl)-5-(6-ethoxypyrazin-2-yl)thiazole-2-carboxamide] | > 7.00
2 | O=C(NC1(c2csc(NS(=O)(=O)C3CC3)n2)CC1)c1ccc2c[n+]([O-])ccc2c1 [I-11, 6-(1-(2-(cyclopropanesulfonamido)thiazol-4-yl)cyclopropylcarbamoyl)isoquinoline 2-oxide] | ≤ 6.00
3 | CCOc1cncc(-c2cnc(C(=O)NC(CCOC)c3cc(NS(=O)(=O)C4CC4)ccn3)s2)n1 (stereo not drawn) [I-186] | > 7.00
4 | O=C(NCc1cc(NS(=O)(=O)C2CC2)ccn1)c1ccc(-c2cncc(N3CCCC3)n2)cc1 [I-42] | 6.00 to 7.00
5 | CCOc1cncc(-c2cnc(C(=O)N[C@@H](CN3CCOCC3(C)C)c3cc(NS(=O)(=O)C4CC4)ccn3)s2)n1 (single isomer, unassigned) [I-116] | > 7.00
6 | CCOc1cncc(-c2cnc(C(=O)N[C@@H](c3cc(NS(=O)(=O)C4CC4)ccn3)[C@H]3C[C@@H](N(C)C)C3)s2)n1 (single isomer, unassigned) [I-108] | > 7.00
7 | CCOc1cncc(-n2cnc(C(=O)N3CCC[C@H]3c3ccnc(NS(=O)(=O)C4CC4)n3)c2)n1 [I-276, N-[4-[(2S)-1-[1-(6-ethoxypyrazin-2-yl)imidazole-4-carbonyl]pyrrolidin-2-yl]pyrimidin-2-yl]cyclopropanesulfonamide] | > 7.00
8 | CCOc1cncc(-c2cnc(C(=O)N3CCC[C@H]3c3cccc(NS(=O)(=O)C4CC4)n3)s2)n1 [I-231, N-[6-[(2S)-1-[5-(6-ethoxypyrazin-2-yl)-1,3-thiazole-2-carbonyl]pyrrolidin-2-yl]pyridin-2-yl]cyclopropanesulfonamide] | 6.00 to 7.00
9 | CCOc1cncc(-c2cnc(C(=O)N[C@H](CN3CCC(N(C)C)CC3)c3cc(NS(=O)(=O)C4CC4)ccn3)s2)n1 (single isomer, unassigned) [I-103] | > 7.00
10 | CCOc1cncc(-c2sc(C(=O)N[C@H](CC)c3cc(NS(=O)(=O)C4CC4)ccn3)nc2C)n1 [I-220, (R)—N-(1-(4-(cyclopropanesulfonamido)pyridin-2-yl)propyl)-5-(6-ethoxypyrazin-2-yl)-4-methylthiazole-2-carboxamide] | > 7.00
11 | CCOc1cncc(-c2ncc(C(=O)NCc3cccc(NS(=O)(=O)C(F)F)c3)s2)n1 [I-62, N-[[3-(difluoromethanesulfonamido)phenyl]methyl]-2-(6-ethoxypyrazin-2-yl)-1,3-thiazole-5-carboxamide] | > 7.00
12 | CCOc1cncc(N2CCN(C(=O)NCc3cc(NS(=O)(=O)C4CC4)ccn3)C(=O)C2)n1 [I-28] | ≤ 6.00
13 | CCOc1cncc(-c2ccc3c(c2)CN(C(CC)c2csc(NS(=O)(=O)C4CC4)n2)C3=O)n1 (stereo in doubt) [I-12a, (S)—N-(4-(1-(5-(6-ethoxypyrazin-2-yl)-1-oxoisoindolin-2-yl)propyl)thiazol-2-yl)cyclopropanesulfonamide] | 6.00 to 7.00
14 | CCOc1cncc(-c2cnc(C(=O)NC(CN3CCNCC3)c3cc(NS(=O)(=O)C4CC4)ccn3)s2)n1 (stereo not drawn) [I-217, N-(1-(4-(cyclopropanesulfonamido)pyridin-2-yl)-2-(piperazin-1-yl)ethyl)-5-(6-ethoxypyrazin-2-yl)thiazole-2-carboxamide] | > 7.00
15 | CCOc1cncc(-c2ccc(NC(=O)[C@](F)(CC)c3cc(NS(=O)(=O)C4CC4)ccn3)nc2)n1 [I-259, (S)-2-(4-(cyclopropanesulfonamido)pyridin-2-yl)-N-(5-(6-ethoxypyrazin-2-yl)pyridin-2-yl)-2-fluorobutanamide] | > 7.00
16 | CCOc1cncc(-c2ccc(NC(=O)[C@@](F)(CC)c3cc(NS(=O)(=O)C4CC4)ccn3)nc2)n1 [I-258, (R)-2-(4-(cyclopropanesulfonamido)pyridin-2-yl)-N-(5-(6-ethoxypyrazin-2-yl)pyridin-2-yl)-2-fluorobutanamide] | > 7.00
17 | O=C(NCc1cc(NS(=O)(=O)C2CC2)ccn1)c1ncc(-c2cncc(OCC(F)(F)F)n2)s1 [I-243] | > 7.00
18 | CCc1nc2cc(C(=O)NCc3cc(NS(=O)(=O)C4CC4)ccn3)ccc2[nH]c1=O [I-171, N-((4-(cyclopropanesulfonamido)pyridin-2-yl)methyl)-3-ethyl-2-oxo-1,2-dihydroquinoxaline-6-carboxamide] | ≤ 6.00
19 | CCOc1cncc(-c2cnc(C(=O)N[C@@H](C[C@H]3CCCCN3)c3cc(NS(=O)(=O)C4CC4)ccn3)s2)n1 (single isomer, unassigned) [I-138] | > 7.00
20 | CCOc1cncc(-n2ccc(C(=O)N3CCC[C@@H]3c3cccc(NS(=O)(=O)C(F)F)c3)n2)n1 [I-79, N-[3-[(2R)-1-[1-(6-ethoxypyrazin-2-yl)pyrazole-3-carbonyl]pyrrolidin-2-yl]phenyl]-1,1-difluoromethanesulfonamide] | ≤ 6.00
21 | CCOc1cncc(-c2ccc(C(=O)NCc3cc(NS(=O)(=O)C4CC4)cnn3)nc2)n1 [I-37, N-[(5-cyclopropanesulfonamidopyridazin-3-yl)methyl]-5-(6-ethoxypyrazin-2-yl)pyridine-2-carboxamide] | > 7.00

Row | Structure (SMILES) | pIC50
22 | O=C(NC1(c2csc(NS(=O)(=O)C3CC3)n2)CC1)c1ccc2cnccc2c1 [I-4, N-(1-(2-(cyclopropanesulfonamido)thiazol-4-yl)cyclopropyl)isoquinoline-6-carboxamide] | ≤ 6.00
23 | CCOc1cncc(-c2cnc(C(=O)NC(CCN3CCCC3)c3cc(NS(=O)(=O)C4CC4)ccn3)s2)n1 (stereo not drawn) [I-175, N-(1-(4-(cyclopropanesulfonamido)pyridin-2-yl)-3-(pyrrolidin-1-yl)propyl)-5-(6-ethoxypyrazin-2-yl)thiazole-2-carboxamide] | > 7.00
24 | CCOc1cncc(-c2ccc(C(=O)NCc3cc(NS(=O)(=O)CC(F)(F)F)ccn3)cc2)n1 [I-65, 4-(6-ethoxypyrazin-2-yl)-N-((4-((2,2,2-trifluoroethyl)sulfonamido)pyridin-2-yl)methyl)benzamide] | > 7.00
25 | CCOc1cncc(-c2ccc(C(=O)N3CCC[C@@H]3c3cc(NS(=O)(=O)C4CC4)ccn3)nc2)n1 [I-80, N-[2-[(2R)-1-[5-(6-ethoxypyrazin-2-yl)pyridine-2-carbonyl]pyrrolidin-2-yl]pyridin-4-yl]cyclopropanesulfonamide] | ≤ 6.00
26 | O=C(NCc1cc(NS(=O)(=O)C2CC2)ccn1)c1ncc(-n2cnc3ccc(Cl)cc32)s1 [I-193, 5-(6-chloro-1H-benzo[d]imidazol-1-yl)-N-((4-(cyclopropanesulfonamido)pyridin-2-yl)methyl)thiazole-2-carboxamide] | 6.00 to 7.00
27 | COC1CN(c2cncc(-c3ccc(C(=O)NCc4cc(NS(=O)(=O)C5CC5)ccn4)cc3)n2)C1 [I-46] | ≤ 6.00
28 | Cc1nc(C(=O)NCc2cc(NS(=O)(=O)C3CC3)ccn2)cnc1N1CCC[C@@H](C(F)(F)F)C1 [I-55] | 6.00 to 7.00
29 | CCOc1cncc(-c2nnc(C(=O)NCc3cc(NS(=O)(=O)C4CC4)ccn3)o2)n1 [I-57] | ≤ 6.00
30 | CCOc1cncc(-c2cnc(C(=O)N[C@H](CN3C[C@@H]4C[C@H]3CO4)c3cc(NS(=O)(=O)C4CC4)ccn3)s2)n1 (single isomer, unassigned) [I-101] | > 7.00
31 | CCOc1cncc(-c2ccc(C(=O)NCc3cc(NS(=O)(=O)C4CC4)ncn3)nc2)n1 [I-22, N-[(6-cyclopropanesulfonamidopyrimidin-4-yl)methyl]-5-(6-ethoxypyrazin-2-yl) pyridine-2-carboxamide] | > 7.00
32 | CCOc1cncc(-c2cnc(C(=O)NC(CN3[C@H](C)COC[C@@H]3C)c3cc(NS(=O)(=O)C4CC4)ccn3)s2)n1 (stereo partly drawn) [I-111] | > 7.00
33 | CCOc1cncc(-c2ccc(NC(=O)Cc3cc(NS(=O)(=O)C4CC4)ccn3)c(F)c2)n1 [I-39] | > 7.00
34 | CCc1nc2ccc(C(=O)NCc3cc(NS(=O)(=O)C4CC4)ccn3)cc2[nH]c1=O [I-180, N-((4-(cyclopropanesulfonamido)pyridin-2-yl)methyl)-2-ethyl-3-oxo-3,4-dihydroquinoxaline-6-carboxamide] | ≤ 6.00
35 | CCOc1cncc(-c2ccc(C(=O)NCc3cc(NS(=O)(=O)C4CC4)cnn3)cc2)n1 [I-52, N-[(5-cyclopropanesulfonamidopyridazin-3-yl)methyl]-4-(6-ethoxypyrazin-2-yl) benzamide] | > 7.00
36 | CCOc1cncc(-c2cnc(C(=O)N[C@@H](CC3CCN(C)CC3)c3cc(NS(=O)(=O)C4CC4)ccn3)s2)n1 [I-99, (S)—N-(1-(4-(cyclopropanesulfonamido)pyridin-2-yl)-2-(1-methylpiperidin-4-yl)ethyl)-5-(6-ethoxypyrazin-2-yl)thiazole-2-carboxamide] | > 7.00
37 | CCOc1cncc(-c2cnc(C(=O)N[C@@H](CN(C)C)c3cc(NS(=O)(=O)C4CC4)ccn3)s2)n1 (single isomer, unassigned) [I-234] | > 7.00
38 | CCOc1cncc(-n2cc(C(=O)NCc3cc(NS(=O)(=O)C4CC4)ccn3)cn2)n1 [I-244] | 6.00 to 7.00
39 | CCOc1cncc(-c2cnc(C(=O)N[C@@H](CN3CCCCC3)c3cc(NS(=O)(=O)C4CC4)ccn3)s2)n1 (single isomer, unassigned) [I-214] | > 7.00
40 | CCOc1cncc(-c2cnc(C(=O)N3CCOCC3c3cc(NS(=O)(=O)C4CC4)ccn3)s2)n1 (stereo not drawn) [I-209, N-(2-{4-[5-(6-ethoxypyrazin-2-yl)-1,3-thiazole-2-carbonyl]morpholin-3-yl}pyridin-4-yl)cyclopropanesulfonamide] | > 7.00
41 | CCOc1cncc(-c2cnc(C(=O)N[C@H](CN3CCNCC3)c3cc(NS(=O)(=O)C4CC4)ccn3)s2)n1 [I-205, (R)—N-(1-(4-(cyclopropanesulfonamido)pyridin-2-yl)-2-(piperazin-1-yl)ethyl)-5-(6-ethoxypyrazin-2-yl)thiazole-2-carboxamide] | > 7.00
42 | CCOC[C@H](NC(=O)c1ncc(-c2cncc(OCC)n2)s1)c1cc(NS(=O)(=O)C2CC2)ccn1 [I-96, (R)—N-(1-(4-(cyclopropanesulfonamido)pyridin-2-yl)-2-ethoxyethyl)-5-(6-ethoxypyrazin-2-yl)thiazole-2-carboxamide] | > 7.00
